Like-named read-outs stand apart in the source and are kept apart here.

In data set [1] the test system is T. b. rhodesiense KETRi 243 (melarsoprol, pentamidine- and diminazene diaceturate-resistant). Nature of the data set: In vitro antitrypanosomal activity, T.b. rhodesiense KETRI 243. The note with it: Trypanosoma brucei, RHODESIENSE; Table S1; from IC50 of Table 1; read-out: pIC50 T.b. rhod (converted). The format is cell-based, Trypanosoma brucei rhodesiense.
Description: (§5) The anti-T. cruzi activity was determined using intracellular amastigote forms of T. cruzi Tulahuen strain C2C4 in rat skeletal myoblasts (L6 cells) as described previously [24]. The anti-L. donovani activity was determined using the amastigotes of L. donovani strain MHOM-ET-67/L82 as described previously [24]. […] The cytotoxicity assays against rat skeletal myoblast L6-cells were performed as described previously [24].
In data set [2] the test system is T. b. brucei Lab 110 EATRO (pentamidine-sensitive). The arrangement: method as in PMID 19736009. Conditions: strain Lab 110; average of at least two determinations; cited from earlier work.
Data set [3] relates to amastigotes of L. donovani strain MHOM-ET-67/L82. The data set can be described thus: In vitro anti-L. donovani activity. The data set is classed as cell-based, Leishmania donovani. Conditions: for IC50: average of at least two determinations.
Description: as §5
In data set [4] the test system is T. b. brucei Lab 110 EATRO (pentamidine-sensitive). The data set can be described thus: In vitro antitrypanosomal activity, T.b. brucei Lab 110 EATRO. Conditions: Trypanosoma brucei; Table S1; from IC50 of Table 1; read-out: pIC50 T.b. brucei (converted). The format is cell-based, Trypanosoma brucei brucei.
Description: (§6) The in vitro assays with the two isolates of T. brucei were conducted according to previously described procedures [14].
The test system of data set [5] is intracellular amastigote forms of T. cruzi Tulahuen strain C2C4 in rat skeletal myoblasts (L6 cells). The data set can be described thus: In vitro anti-T. cruzi activity. The data set is classed as cell-based, Trypanosoma cruzi. Conditions: for IC50: average of at least two determinations.
Description: as §5
For a further data set, the system named is calf thymus DNA. The data set can be described thus: DNA thermal melting with calf thymus DNA. The format is binding. Conditions: 1:5 compound to DNA base pair ratio; mean of at least two determinations. On the procedure: (§1) In addition to the determination of the potency of the synthesized compounds against different strains of cell lines (Table 1), thermal melting experiments of these compounds were also conducted with poly(dA-dT) and calf thymus DNA (Table S1, supplementary file). […] The weaker binding to DNA (lower ΔTm values) compared to pentamidine might be attributed to the lower lipophilicity and higher PSA properties of these compounds since they would be expected to bind less favorably in the less polar environment of the minor grove of DNA as was reported for the aza-analogues of furamidine. […] Therefore, ability of these compounds to act at other potential targets cannot be ruled out.
(§2) The DNA binding affinity of the tested compounds was determined by measuring the change in mid-point of the thermal denaturation curves for a 1:5 compound to DNA base pair ratio as described previously. Each Tm value reported in Table S1 (supplementary file) represents the mean of at least two experimental determinations.

For data set [6], the system named is P. falciparum K1 (chloroquine-resistant). Nature of the data set: In vitro anti-plasmodial activity, K1. The data set is classed as cell-based, Plasmodium falciparum.
Description: as §5
On the set-up of data set [7]: method as in PMID 24036514. The note with it: incubation in vitro with mouse liver microsomes; cited from earlier work. (Liver microsomes are a subcellular fraction often used to study metabolism.)
A further data set concerns poly(dA-dT). The data set can be described thus: DNA thermal melting with poly(dA-dT). Conditions: 1:5 compound to DNA base pair ratio; mean of at least two determinations. The data set is classed as binding. The procedure: as §1, §2
Data set [8] deals with rat skeletal myoblast L6-cells. The data set can be described thus: Cytotoxicity against L6 cells. The data set is classed as cell-based. The note with it: cytotoxicity, read-out: IC50 L6 Cells.
Description: as §5
Data set [9] deals with T.b. brucei Lab 110 EATRO. Nature of the data set: In vivo trypanocidal activity in mice, Lab 110 EATRO. Conditions: for curing of infected mice: i.p., 3 days. On the procedure:
(§3) The compounds were administered via the intraperitoneal route at doses ranging from 1.0 mg/kg/day to 25.0 mg/kg/day for 3 days unless otherwise noted. Pentamidine was used as the reference compound. All three of the tested compounds were effective in curing mice infected with the Lab 110 EATRO or KETRI 2002 strains at several doses.
(§4) The in vivo studies were conducted according to the procedures described previously.

In another data set the test system is Pneumocystis. The arrangement: method as in PMID 16801410. The note with it: 20 mg/kg and 40 mg/kg, cited from earlier work.
The subject of data set [10] is T.b. rhodesiense KETRI 2002. Nature of the data set: In vivo trypanocidal activity in mice, KETRI 2002. The note with it: for curing of infected mice: KETRI 2002, i.p., 3 days; for Mean Survival: KETRI 2002. The procedure:
as §3, §4

Data set [11] relates to T.b. rhodesiense KETRI 2538. The data set can be described thus: In vivo trypanocidal activity in mice, KETRI 2538. Conditions: for Mean Survival: KETRI 2538; for curing of infected mice: drug-resistant KETRI 2538, i.p., 3 days. On the procedure:
as §3, §4

For data set [12], the system named is both strains of T. brucei and P. falciparum. Nature of the data set: In vitro potency against both strains of T. brucei and P. falciparum. The format is cell-based, Trypanosoma brucei; Plasmodium falciparum. The note with it: range over T.b. brucei, T.b. rhodesiense, P. falciparum NF54 and K1.
Description: as §6
The test system of data set [13] is P. falciparum NF54 (chloroquine-sensitive). The data set can be described thus: In vitro anti-plasmodial activity, NF54. The format is cell-based, Plasmodium falciparum. Conditions: chloroquine-sensitive strain, read-out: IC50 P. falcip NF54.
For data set [14], the system named is T.b. rhodesiense KETRI 1992. The data set can be described thus: In vivo trypanocidal activity in mice, KETRI 1992. Conditions: for Mean Survival / No. of Mice Cured/Total (%): KETRI 1992.
The test system of data set [15] is T. b. rhodesiense KETRi 243 (melarsoprol, pentamidine- and diminazene diaceturate-resistant). The arrangement: method as in PMID 19736009. The note with it: strain KETRI 243; average of at least two determinations; read-out: IC50 T.b. rhod; cited from earlier work.
A further data set concerns hemozoin formation. The arrangement: method as in PMID 15115412. Conditions: micromolar concentrations, ex vivo; cited from earlier work.
The conditions of data set [16]: human, in vivo; cited from earlier work.
In data set [17] the test system is both strains of P. falciparum. Nature of the data set: In vitro activity and selectivity, both strains of P. falciparum. The format is cell-based, Plasmodium falciparum.
Description: The selectivity index of these compounds for T. brucei (SIT.b) or P. falciparum (SIP.f) are defined as the ratio of the L6 cells IC50 to the T. brucei or P. falciparum IC50 values.
The in vitro assays with the two isolates of T. brucei were conducted according to previously described procedures [14]. […] The cytotoxicity assays against rat skeletal myoblast L6-cells were performed as described previously [24].
The mark [18] stands for this setting: Trypanosoma cruzi, TULAHUEN, L6.
Setting [19] is: Plasmodium falciparum, K1, Table S1, from IC50 of Table 1, read-out: pIC50 P. falcip K1 (converted).
[20] abbreviates: Plasmodium falciparum, K1, chloroquine-resistant strain, read-out: IC50 P. falcip K1.
The mark [21] stands for this setting: 10, 15, 25 mg/kg/day i.p. for 3 days (all doses).
The mark [22] stands for this setting: 1.0, 5, 10 mg/kg/day i.p. for 3 days (all doses).

For `NC(=NO)c1ccc(NC(=O)CCCC(=O)Nc2ccc(C(N)=NO)cc2)cc1` [Compound 4], the IC50 in data set [1] is 10000 nM; in data set [2] it was 7300 nM; in [3] (Leishmania donovani), > 100000 nM; in data set [4], 7290 nM; in data set [5] (setting [18]), > 100000 nM; in data set [6] (setting [19]), 3160 nM. Besides, the IC50 in [6] (setting [20]) is 3160 nM; in data set [8] (Rattus norvegicus, L6), > 100000 nM. In addition, the “Thermal Melting ΔTm CT-DNA” value in the data set on calf thymus DNA was 0.7 C. The “metabolism of the amidoxime moiety to the amidine function” value in data set [7] is given as “readily metabolized”. In the data set with poly(dA-dT), the “Thermal Melting ΔTm Poly(dA-dT)” value is 0.0 C.

In the case of `N=C(N)c1ccc(NC(=O)CCCC(=O)Nc2ccc(C(=N)N)cc2)cc1` [Compound 5], the “Mean Survival” value in data set [9] (1.0 mg/kg/day i.p. for 3 days) is 6.0 days; in [9] (2.5 mg/kg/day i.p. for 3 days), 11.3 days; in data set [9] (5 mg/kg/day i.p. for 3 days) it was 10 days; in data set [9] (10 mg/kg/day i.p. for 3 days), >30 days; in [9] (15 mg/kg/day i.p. for 3 days) it was >30 days; in [10] (setting [21]), >30 days. Moreover, the “Mean Survival” value in data set [11] (setting [21]) was >30 days; in [14] (10 mg/kg/day i.p. for 3 days), 17.5 days; in data set [14] (15 mg/kg/day i.p. for 3 days) it was 14.5 days; in data set [14] (25 mg/kg/day i.p. for 3 days), 25 days. Further, the “No. of Mice Cured/Total (%)” value in [9] (1.0 mg/kg/day i.p. for 3 days), in [9] (2.5 mg/kg/day i.p. for 3 days), in [14] (10 mg/kg/day i.p. for 3 days), in data set [14] (15 mg/kg/day i.p. for 3 days) and in [14] (25 mg/kg/day i.p. for 3 days) was 0/3 in each case. The “curing of infected mice” value is given as “highly effective” in [9], “highly effective” in [10] and “highly efficacious” in data set [11]. In addition, the IC50 was 95.9 nM in [1]; 9 nM in data set [2]; > 100000 nM in data set [3] (Leishmania donovani); 1 to 96 nM in data set [12]; 2 nM in data set [13] (Plasmodium falciparum, NF54); 8.99 nM in data set [4]. Besides, the IC50 is > 100000 nM in data set [5] (setting [18]); 96 nM in data set [15]; 2 nM in data set [6] (setting [19]); 2 nM in [6] (setting [20]); 69000 nM in data set [8] (Rattus norvegicus, L6). In the data set with Pneumocystis (same doses of pentamidine), the “survival versus pentamidine treated mice” value was “improved survival curves”. In the data set with Pneumocystis, the reductions in burden is given as > 1000 fold. Besides, in the data set on hemozoin formation, the “interference with hemozoin formation” value was “interfere with hemozoin formation”. The “Thermal Melting ΔTm CT-DNA” value in the data set with calf thymus DNA stood at 5.6 C. Moreover, in the data set with poly(dA-dT), the “Thermal Melting ΔTm Poly(dA-dT)” value is on record as 11.4 C.

Turning to `N=C(N)c1ccc(NC(=O)CCCCC(=O)Nc2ccc(C(=N)N)cc2)cc1` [Compound 6], the “Mean Survival” value in [9] (1.0 mg/kg/day i.p. for 3 days) is 6.7 days; in data set [9] (2.5 mg/kg/day i.p. for 3 days), 10.0 days; in data set [9] (5 mg/kg/day i.p. for 3 days), >30 days; in data set [9] (10 mg/kg/day i.p. for 3 days), >30 days; in data set [9] (15 mg/kg/day i.p. for 3 days) it was >30 days; in [10] (setting [21]) it was >30 days. For the same molecule, in data set [11] (5, 10, 15 mg/kg/day i.p. for 3 days (all doses)), the “Mean Survival” value was >30 days. In addition, the “No. of Mice Cured/Total (%)” value in data set [9] (1.0 mg/kg/day i.p. for 3 days) and in data set [9] (2.5 mg/kg/day i.p. for 3 days) was 0/3 throughout. The figures for the “curing of infected mice” value in data set [9], in data set [10] and in data set [11] were “highly effective”, “highly effective” and “highly efficacious”, respectively. For the same molecule, the IC50 in [1] was 2 nM; in data set [2], 3 nM; in data set [3] (Leishmania donovani), > 100000 nM; in [12] it was 1 to 96 nM; in data set [13] (Plasmodium falciparum, NF54) it was 4 nM; in [4], 3 nM. For the same molecule, the IC50 in data set [5] (setting [18]) is > 100000 nM; in data set [15], 2 nM; in data set [6] (setting [19]), 18 nM; in data set [6] (setting [20]) it was 18 nM; in data set [8] (Rattus norvegicus, L6), > 100000 nM. For the same molecule, in the data set with calf thymus DNA, the “Thermal Melting ΔTm CT-DNA” value was found to be 8.7 C. Further, in the data set on poly(dA-dT), the “Thermal Melting ΔTm Poly(dA-dT)” value is on record as 14.4 C.

Turning to `N=C(N)c1ccc(OCCCCCOc2ccc(C(=N)N)cc2)cc1` [Pentamidine, pentamidine, reference compound], the “Mean Survival” value in data set [9] (1.0, 2.5, 5, 10 mg/kg/day i.p. for 3 days (all doses)) is >30 days; in [10] (setting [22]), >30 days; in data set [11] (setting [22]), >30 days; in data set [14] (1 mg/kg/day i.p. for 3 days), 12.6 days; in [14] (5 mg/kg/day i.p. for 3 days), 17.0 days; in data set [14] (10 mg/kg/day i.p. for 3 days) it was 22.2 days. The IC50 in data set [1] is 2 nM; in data set [4], 2 nM; in data set [15], 2 nM; in [6] (setting [19]) it was 180 nM. For the same molecule, the “curing of infected mice” value in data set [14] (drug-resistant KETRI 1992, i.p., 3 days) is “ineffective”. Further, the “Thermal Melting ΔTm CT-DNA” value in the data set with calf thymus DNA was found to be 11.6 C. Moreover, the “Thermal Melting ΔTm Poly(dA-dT)” value in the data set with poly(dA-dT) came to 21.6 C.

In the case of `CONC(=N)c1ccc(-c2ccc(-c3ccc(C(=N)NOC)cc3)o2)cc1.O=C(O)/C=C\C(=O)O` [parafuramidine maleate], the “toxicity that halted development” value in data set [16] is given as “nephrotoxicity”.

“N,N′-bis[4-(aminoiminomethyl)phenyl] ethane-1,2-dicarboxamide [Compound 1]”: the IC50 in data set [3] is > 100000 nM; in data set [13] it was 8 nM; in [5], > 100000 nM; in data set [6] (chloroquine-resistant strain, read-out: IC50 P. falcip K1) it was 3 nM; in data set [17] (range over NF54 and K1, read-out: IC50 against both strains of P. falciparum), 3 to 8 nM; in data set [8], > 100000 nM. Besides, the “activity against L. donovani” value in data set [3] (in vitro) was “inactive”. The “activity against T. cruzi” value in data set [5] (in vitro) was “inactive”. Moreover, the “pIC50 P. falcip K1” value in [6] (Table S1, from IC50 of Table 1) turned out to be 8.523. For the same molecule, the “selectivity index for P. falciparum (SIP.f)” value in data set [17] (ratio of the L6 cells IC50 to the P. falciparum IC50) is > 33,000.
